According to patent US5858667A, “Method for the enumeration of micronucleated erythrocyte populations with a single laser flow cytometer” (Litron Laboratories, priority 1996, dated 1999):
Values joined by “and” are separate entries in the source; they are usually repeats but may differ in a detail not shown here. Identical values can stand only once. “Also recorded” adds a separate entry of the source.

What was measured:
[1] = system: normochromatic erythrocytes; test: Flow cytometric micronucleus assay (FITC-anti-CD71/propidium iodide), normochromatic erythrocytes, MMS-treated mice; format: in vivo, male BALB/c mice; conditions: for Average Freq. (%) MN-NCE: average of 5 mice; for Freq. (%) MN-NCE / No. MN-NCE / No. NCE: individual mouse
Description: (§1) Optimum flow cytometer settings are extremely important in this process. The fluorescent signals of the stained micronucleated normochromatic erythrocyte and micronucleated reticulocyte populations should be clearly resolved from those of the normochromatic erythrocyte and reticulocyte cell populations. In accordance with the method of the present invention, the analyses described herein were carried out with a single laser flow cytometer (Fac Star^PLUS ™, Becton Dickenson). The 5 W argon ion laser was tuned to provide 488 nm excitation. Cells were passed through the laser at an average rate of 2,500-8,000 erythrocytes/second. One embodiment of the invention is to use a 20μ elliptical beam that is focused at the sample stream. The results and analyses described herein were obtained with said beam. As known to those skilled in the art, different beam shapes are also acceptable.
(§2) The flow cytometer is equipped with four photomultiplier tubes (PMTs) which are used to sense forward light scatter, side light scatter, red fluorescence signals, and green fluorescence signals. Proper filters must be placed before the green and red photomultiplier tubes. In accordance with the methods of the present invention, adequate fluorescent signals can be obtained if a 520 nm long pass filter and a 555 nm short pass filter is placed before the green PMT. In accordance with the methods of the present invention, a 580 nm long pass filter in front of the red PMT is desirable. This is a preferred configuration that allows optimal fluorescence detection. However, as known to those skilled in the art, other filter sets may be acceptable. The signals received by the PMTs and the light scatter photodiode are processed by an in-line computer and cell populations of interest are quantitated (see, e.g., FIG. 1) using software conventional to the art. The data may be acquired and processed as either logarithmic or linear signals. In one configuration of the invention, log data was acquired for the forward light scatter, side scatter, as well as red and green fluorescence peak height signals.
(§3) Erythrocytes were isolated by gating on forward and side light scatter parameters. The stop mode of each analysis was reached when 500,000 total erythrocytes were interrogated. A window was set up corresponding to cells low in both fluorescence due to the labelled antibody with binding specificity for a surface marker for erythroblasts/reticulocytes (e.g., anti-CD71 antibody) and fluorescence due to the nucleic acid staining dye (e.g., propidium iodide), such as for detecting normochromatic erythrocytes in the erythrocyte population. A second gate was used to define cells low in anti-CD71 fluorescence and high in propidium iodide fluorescence, such as for detecting micronucleated normochromatic erythrocytes in the erythrocyte population. Another region corresponding to cells which were high in anti-CD71 fluorescence and low in propidium iodide fluorescence, such as for detecting reticulocytes in the erythrocyte population. A fourth region corresponding to cells which were high in both anti-CD71 fluorescence and in propidium iodide fluorescence was defined for detecting micronucleated reticulocytes in the erythrocyte population. Having defined these regions, the frequency of reticulocytes, micronucleated reticulocytes, micronucleated normochromatic erythrocytes, and normochromatic erythrocytes were automatically determined by the flow cytometry software.
(§4) Propidium iodide and FITC have been employed to simultaneously label nucleic acids and cell surface antigens in human B-cell lymphomas (Kruth et al., 1981, Cancer Res. 41:4895-4899; Montecucco et al., 1985, Basic Appl. Histochem. 29:275-2821). In the method according to the present invention the combined use of a nucleic acid staining dye, such as propidium iodide, and FITC-antibody labeling is utilized to differentially stain micronucleated reticulocytes. […]

reticulocytes = test: Flow cytometric micronucleus assay (FITC-anti-CD71/propidium iodide), reticulocytes, MMS-treated mice; format: in vivo, male BALB/c mice; conditions: for Average Freq. (%) MN-RET: average of 5 mice; for Freq. (%) MN-RET / No. MN-RET / No. RET: individual mouse
Description: as §1, §2, §3, §4

micronuclei = conditions: previous observations, different methodologies; cited from earlier work
[2] = system: micronucleated polychromatic erythrocytes; conditions: administered 2 hours before clastogen exposure; cited from earlier work
[3] = 0-72 h after 100 mg MMS/kg i.p., in words

Compound: COS(C)(=O)=O [MMS, methyl methanesulfonate]
- micronuclei frequency in the mature normochromatic erythrocyte population, time course [1, 3]: rise gradually over the course of the experiment; also recorded: rose slightly
- Average Freq. (%) MN-NCE ([1]; 24 h after 100 mg MMS/kg i.p.): 0.26%
- Freq. (%) MN-NCE ([1]; 24 h after 100 mg MMS/kg i.p.): 0.25% and 0.26% and 0.23% and 0.28%
- No. MN-NCE ([1]; 24 h after 100 mg MMS/kg i.p.): 1244 and 1287 and 1145 and 1254 and 1391
- No. NCE ([1]; 24 h after 100 mg MMS/kg i.p.): 490949 and 490112 and 488089 and 487462 and 490011
- Average Freq. (%) MN-NCE ([1]; 40 h after 100 mg MMS/kg i.p.): 0.28%
- Freq. (%) MN-NCE ([1]; 40 h after 100 mg MMS/kg i.p.): 0.29% and 0.26% and 0.24% and 0.30%
- No. MN-NCE ([1]; 40 h after 100 mg MMS/kg i.p.): 1405 and 1285 and 1178 and 1445 and 1458
- No. NCE ([1]; 40 h after 100 mg MMS/kg i.p.): 490511 and 485301 and 486302 and 484237 and 492350
- Average Freq. (%) MN-NCE ([1]; 48 h after 100 mg MMS/kg i.p.): 0.30%
- Freq. (%) MN-NCE ([1]; 48 h after 100 mg MMS/kg i.p.): 0.31% and 0.32% and 0.27%
- No. MN-NCE ([1]; 48 h after 100 mg MMS/kg i.p.): 1515 and 1538 and 1298 and 1517 and 1339
- No. NCE ([1]; 48 h after 100 mg MMS/kg i.p.): 487164 and 481651 and 480648 and 476364 and 490250
- Average Freq. (%) MN-NCE ([1]; 72 h after 100 mg MMS/kg i.p.): 0.34%
- Freq. (%) MN-NCE ([1]; 72 h after 100 mg MMS/kg i.p.): 0.34% and 0.36% and 0.35% and 0.33%
- No. MN-NCE ([1]; 72 h after 100 mg MMS/kg i.p.): 1593 and 1573 and 1607 and 1628 and 1575
- No. NCE ([1]; 72 h after 100 mg MMS/kg i.p.): 473052 and 462539 and 450096 and 461882 and 475141
- frequency of micronucleated reticulocytes, time course (reticulocytes; [3]): rise sharply over the course of the first 40 hours; also recorded: rise and fall quickly
- Average Freq. (%) MN-RET (reticulocytes; 24 h after 100 mg MMS/kg i.p.): 0.81%
- Freq. (%) MN-RET (reticulocytes; 24 h after 100 mg MMS/kg i.p.): 0.54% and 0.93% and 0.69% and 1.31% and 0.58%
- No. MN-RET (reticulocytes; 24 h after 100 mg MMS/kg i.p.): 46 and 88 and 80 and 162 and 55
- No. RET (reticulocytes; 24 h after 100 mg MMS/kg i.p.): 8531 and 9390 and 11532 and 12234 and 9391
- Average Freq. (%) MN-RET (reticulocytes; 40 h after 100 mg MMS/kg i.p.): 4.20%
- Freq. (%) MN-RET (reticulocytes; 40 h after 100 mg MMS/kg i.p.): 4.41% and 4.18% and 4.89% and 3.81% and 3.72%
- No. MN-RET (reticulocytes; 40 h after 100 mg MMS/kg i.p.): 386 and 592 and 652 and 581 and 262
- No. RET (reticulocytes; 40 h after 100 mg MMS/kg i.p.): 8373 and 13570 and 12679 and 14533 and 6785
- Average Freq. (%) MN-RET (reticulocytes; 48 h after 100 mg MMS/kg i.p.): 2.25%
- Freq. (%) MN-RET (reticulocytes; 48 h after 100 mg MMS/kg i.p.): 2.92% and 2.09% and 2.10% and 1.86% and 2.29%
- No. MN-RET (reticulocytes; 48 h after 100 mg MMS/kg i.p.): 355 and 366 and 396 and 431 and 211
- No. RET (reticulocytes; 48 h after 100 mg MMS/kg i.p.): 11794 and 17187 and 18484 and 22687 and 8990
- Average Freq. (%) MN-RET (reticulocytes; 72 h after 100 mg MMS/kg i.p.): 0.41%
- Freq. (%) MN-RET (reticulocytes; 72 h after 100 mg MMS/kg i.p.): 0.43% and 0.40% and 0.46% and 0.34%
- No. MN-RET (reticulocytes; 72 h after 100 mg MMS/kg i.p.): 112 and 147 and 224 and 150 and 82
- No. RET (reticulocytes; 72 h after 100 mg MMS/kg i.p.): 25838 and 36327 and 48913 and 36940 and 23744
- time of maximum response (micronuclei formation) (micronuclei): 36 h

Compound: chlorophyllin
- effect on incidence of micronucleated polychromatic erythrocytes induced by gamma radiation [2]: reduced the incidence of micronucleated polychromatic erythrocytes
